From patent US10525030B2 (priority 2013, dated 2020)

System: lithium-pilocarpine model of temporal lobe epilepsy
Experiment: Neuroprotection activity using the lithium-pilocarpine model of temporal lobe epilepsy
Type: in vivo, Male Sprague-Dawley rats
Conditions: rats after Li-pilocarpine
Description: Male Sprague-Dawley rats (purchased from Orient Bio Inc. Korea) of body weight 175-230 g were used for these studies and housed 4 rats per cage for 4-5 days. On the day prior to status epilepsy (SE), rats received 127 mg/kg lithium chloride (Sigma, St. Louis, Mo., U.S.A.) intraperitoneal (i.p.). Approximately 18-20 h following this treatment, rats were given an i.p. injection of 43 mg/kg pilocarpine (Sigma). An i.p. injection of 2 mg/kg methyl-scopolamine (Sigma) was administered 30 min prior to pilocarpine to block the effects of the muscarinic agonist on peripheral cholinergic receptors. The effects of various dose compound (or example) 1, 65 and 67, dissolved in 30% Poly Ethylene Glycol 400 (Acros Organics, Geel, Belgium) were studied at 30 min after SE onset. The drugs were administered i.p. in a volume of 2 ul/g body weight. Pharmacological effects of all the test materials were evaluated to compared test groups (n=8) with a control group (n=8). Control group was administrated vehicle, only. All animals were kept for 2 weeks to look at the mortality and quantification of cell densities was performed 14 days after SE in test groups and control rats not subjected to SE. The animals were deeply anesthetized by injection lumpun plus zoletile, 7:3 (v/v) and perfused transcardially with 150 ml of ice-cold 0.01 M phosphate buffer followed by 250 ml of freshly prepared ice-cold 4% paraformaldehyde (PFA) in 0.1 M phosphate buffer, pH 7.4. The brains were removed and postfixed in the same fixative for an additional 22˜24 h at 4° C., and then transferred to 30% sucrose for cryoprotection until the samples were precipitated. Brains were frozen in methyl butane with dry ice and stored at −80° C. Serial coronal […] slices were cut in a cryostat (Microtome HM 1850, Leica, Germany) and put the sections onto the slides, and air-dried before thionine staining. Every fifth section was selected for morphometric analysis.
Neuronal density quantification was performed automatically with the MCID Elite software (Interfocus Ltd, Linton, UK) by counting the number of neurons present in a defined area of the structure of interest (dorsal hippocampus—CA1, CA3, DZ) and carried out with a microscopic enlargement of 200- or 400-fold. Countings were performed twice on each side in each region by a single observer unaware of animal's treatment and averaged. In each structure, the mean and minimal surface area of the neurons were determined in order to count only neurons and exclude glial cells with smaller cell bodies. (Ref., Jennifer François, Katuschia Germe, Arielle Ferrandon, Estelle Koning, Astrid Nehlig (2011) Carisbamate has powerful disease-modifying effects in the lithium-pilocarpine model of temporal lobe epilepsy, Neuropharmacology 61: 313˜328)
Data were expressed as mean±sem. Statistical analysis of difference between groups was evaluated by ANOVA followed by Dunnett's test or Bonferroni test as a post hoc analysis using Statistica (Statsoft, Inc., USA). Difference was considered statistically significant when the p value was less than 0.05.

| SMILES | survival rate (30 mg/kg i.p. 30 min after SE onset, kept 2 weeks (FIG. 5)) [%] | survival rate (120 mg/kg i.p. 30 min after SE onset, kept 2 weeks (FIG. 5)) [%] | survival rate (5 mg/kg i.p. 30 min after SE onset, kept 2 weeks (FIG. 4)) [%] | survival rate (25 mg/kg i.p. 30 min after SE onset, kept 2 weeks (FIG. 4)) [%] | survival rate (50 mg/kg i.p. 30 min after SE onset, kept 2 weeks (FIG. 4)) [%] |
| --- | --- | --- | --- | --- | --- |
| CC[C@H](OC(N)=O)[C@@H](O)c1ccccc1I [Compound 67, 1-(2-iodophenyl)-(S)-1-hydroxybutyl-(S)-2-carbamate] | 25 | 100 |  |  |  |
| C[C@H](OC(N)=O)[C@@H](O)c1ccccc1I [Compound 65, 1-(2-iodophenyl)-(S)-1-hydroxypropyl-(S)-2-carbamate] |  |  | 50 | 62.5 | 100 |
